Test results taken from patent US12642809B2, “Fucosylation and immune modulation in cancer” (H. LEE MOFFITT CANCER CENTER AND RESEARCH INSTITUTE, INC., priority 2019, dated 2026).
Entries after “also recorded” stand apart in the source; their conditions may differ.

Legend:
Type in all cases: in vivo, mouse
SW1 melanoma tumors = SW1 melanoma tumors in C3H/HeN mice fed control or L-fucose water; conditions: for reduced tumor growth: 100 mM L-fucose in drinking water from ~150 mm^3
Method: To determine which immune cell populations were affected by L-fucose, another mouse melanoma model treated with control or L-fucose-supplemented water was used. First, 1.25×10^6 SW1 mouse melanoma cells were injected into the back right flanks of the mice and allowed the tumors to grow to 150 mm^3. At 150 mm^3 (14 days), 100 mM L-fucose was administered via the drinking water to half of the mice. Tumor growth was monitored (FIGS. 3A and 3B). Total and specific subpopulations of tumor-infiltrating lymphocytes were assessed by cell flow cytometric analysis (FIGS. 3C and 3D). Assessed populations included F4/80 (macrophage)-, Gr-1 (MDSCs)-, Cd11c (Dendritic cells)-, and DX5 (NK cells)-positive cells. For T-cells, we probed for CD3 (general T-cell marker) and further for CD4 and CD8 (for those T cell subpopulations). Of the CD4-positive cells, CD25 positive cells was used to elucidate the T regulatory cells. […] Both CD4 and CD8 positive T cells (CD3+ cells) increased in response to fucose. However, myeloid derived suppressor cells (MDSCs) decreased in response to dietary fucose supplementation.
Tumors of SW1 or SMI melanoma cells from C3H/HeJ or C57BL/6 mice, respectively) were digested using 1× tumor digest buffer (0.5 mg/ml. Collagenase I, 0.5 mg/ml. Collagenase IV, 0.25 mg/ml. Hyalyronidase V. 0.1 mg/ml. DNAse I in HBSS (Millipore Sigma (St. Louis, MO)). Tumors were homogenized using the Miltenyi MACs dissociator. Red blood cells were lysed using ACK lysis buffer (Life Technologies, (Grand Island, NY)). Tumor homogenate cells were counted using a standard hemocytometer. (7) Flow Cytometry (a) TIL Profiling:
Single-cell suspensions from tumor and spleen tissue were stained with Live/Dead Zombie NIR (Biolegend, (San Diego, CA)) at 1:1,000 in PBS for 20 min. Cell suspensions were spun down and stained with the following antibodies: APC anti-mouse CD3 (0.5 μg/mL, BD Biosciences (San Jose, CA)), Pacific Blue anti-mouse CD4 ([…], BD Biosciences (San Jose, CA)), BV785 anti-mouse CD8 (0.5 μg/mL, BD Biosciences (San Jose, CA)), PerCP anti-mouse CD25 ([…], BD Biosciences (San Jose, CA)), FITC anti-mouse F4/80 (0.5 μg/mL, BD Biosciences (San Jose, CA)), PeCy7 anti-mouse CD11c (0.5 μg/mL, BD Biosciences (San Jose, CA)), PE anti-mouse NK1.1 (0.5 μg/mL, BD Biosciences (San Jose, CA)), PE anti-mouse DX5 (0.5 μg/mL, BD Biosciences (San Jose, CA)), PerCP-Cy5.5 anti-mouse CD11b (0.5 μg/mL, BD Biosciences (San Jose, CA)). After staining, the cells were washed and fixed (2% formaldehyde), followed by another wash and flow cytometric analysis. The compensation controls were prepared using 0.5 μg/ml. of each antibody with beads UltraComp eBeads™, (ThermoFisher Scientific (Waltham, MA)). All samples were subject to flow cytometric analysis using a LSR Flow Cytometer (BD Biosciences (San Jose, CA)). Flow cytometric data was further analyzed using FlowJo™ analysis software (BD Biosciences (San Jose, CA)). TIL profiles were determined as a measure of TIL subpopulations per gram of tumor tissues or % of total splenocytes.
FFPE mouse tumor sections were immunostained with FITC-conjugated AAL lectin (0.4 μg/mL, Vector Laboratories (Burlingame, CA)), rabbit anti-Mart-1 (0.2 μg/mL, Millipore Sigma (St. Louis, MO), and rabbit anti-S100 (0.2 μg/mL, Agilent Technologies (Santa Clara, CA)), followed by AlexaFluor 594 donkey anti-rabbit secondary antibody (0.05 μg/mL, ThermoFisher Scientific (Waltham, MA)). The slides were mounted with VECTASHIELD®+DAPI (Vector Laboratories (Burlingame, CA)). Microscopy images were acquired using a Keyence BZ-X710 microscope (Osaka, Japan), and images were measured for AAL-positive signal within MARTI-/S 100-positive regions (designated as melanoma regions of interest) using FIJI software (NIH). Statistical analysis was performed using GraphPad Prism™ (San Diego, CA).
Four-to-six-week-old female C3HeN and male C57BL6 mice were purchased from Charles Rivers Laboratories for the indicated experiments. […]

SW1 tumors [1] = experiment: SW1 tumors in immunodeficient NSG mice fed with or without L-fuc
Method: Four-to-six-week-old female C3HeN and male C57BL6 mice were purchased from Charles Rivers Laboratories for the indicated experiments. Four-to-six-week-old male NSG mice from the Lau laboratory breeding colony were used for the indicated experiments. Mice were housed in the Comparative Medicine Facility at H. Lee Moffitt Cancer Center and Research Institute. Mouse tumor volumes were measured using length, width and depth divided by 2. Generally, 10 mice were assigned to each indicated treatment cohort, and 1×10^6 melanoma cells were subcutaneously injected into the right rear flanks of the recipient mice. At each experimental endpoint, mice were humanely euthanized using CO2 inhalation in accordance to the American Veterinary Medical Association guidelines. […] All experiments were approved by the Institutional Animal Care and Use Committee (IACUC) in accordance with the National Research Council guidelines.
SW1 murine mouse melanoma cells were subcutaneously injected into the right rear flanks of NSG mice. After 7 days, when the tumors reached ˜150 mm^3, the mice were either supplemented with or without 100 mM L-fucose (Biosynth (Oak Terrace, IL)) via drinking water, which was provided ad libitum. When the tumors reached 2 cm^3, the animals were sacrificed.

SW1 tumors [2] = experiment: SW1/C3H/HeJ model, L-fucose with anti-CTLA4 or anti-PD1 (FIG. 10); conditions: oral L-fucose 100 mM from day 14
Method: FIGS. 10A and 10B show Oral L-fucose is more tumor suppressive than α-CTLA4 or α-PD1 alone, beginnings of improved effects. SW1 tumor growth curves in mice fed ±100 mM L-fucose treated with either control (PBS) or […] (10A) or α-PD1 (10B). Combinations are color-coded as indicated. N=8 mice per condition. L-fucose was administered in the water starting on day 14 (refreshed twice weekly); α-CTLA4 or α-PD1 was administered (20 mg/kg each) twice weekly starting day 14.

[3] = empty vector-expressing SW1 tumors
[4] = vs control diet, listed as L-fuc

C[C@H](O)[C@@H](O)[C@@H](O)[C@H](O)C=O [L-fucose]
increase in tumor fucosylation (SW1 melanoma tumors; 100 mM L-fucose in drinking water): ~2.25 fold
reduced tumor growth (SW1 melanoma tumors): > 65%
reduced tumor growth (SW1 melanoma tumors; listed as L-fuc): ~50%
increase in total TIL counts / infiltrating immune cells per gram of tumor (SW1 melanoma tumors; 100 mM L-fucose in drinking water, flow cytometry): 10-50 fold
reduced growth of EV tumors (SW1 melanoma tumors; [3]): ~50%
total TILs in EV tumors (SW1 melanoma tumors; [3]): doubling
splenic lymphocyte profiles (SW1 melanoma tumors; flow cytometry): without significant changes
additive effect of L-fuc in mFuk tumors (SW1 melanoma tumors; mFuk-expressing SW1 tumors): No additive effects
absolute counts of each TIL subpopulation (SW1 melanoma tumors; vs control diet): increased
intratumoral CD4+ and CD8+ T cells (SW1 melanoma tumors; vs control diet): increased; also recorded: doubled
myeloid derived suppressor cells (MDSCs) in tumor (SW1 melanoma tumors; vs control diet): decreased
overall immune infiltration of tumors (SW1 melanoma tumors; vs control diet): increased
intratumoral CD4+ and CD8+ T cells (SW1 melanoma tumors; [4]): doubling
myeloid derived suppressor cells (MDSCs) in tumor (SW1 melanoma tumors; [4]): either decreased or low
tumor growth with vs without L-fuc (SW1 tumors [1]): no significant differences
suppression of melanoma growth compared with checkpoint antibodies (SW1 tumors [2]): more significantly than anti-CTLA4 or anti-PD1 alone
